Assays:
Assay in all cases: whole plant or invertebrate
Assay type in all cases: in vivo
[1] = tested on: Tobacco Budworm (Heliothis virescens); conditions: in Gossypium hirsutum, 96 h, larvae, 4 days after treatment, read-out: mortality in comparison with untreated controls
[2] = tested on: Red Spider Mite (Tetranychus kanzawai); conditions: in Vigna unguiculata, 72 hours after treatment, read-out: mortality in comparison with untreated controls
[3] = tested on: Rice Green Leafhopper (Nephotettix virescens); conditions: adults, after 72 hours, read-out: mortality in comparison with untreated controls
[4] = tested on: Rice Brown Plant Hopper (Nilaparvata lugens); conditions: adults, after 72 hours, read-out: mortality in comparison with untreated controls
[5] = tested on: Mediterranean Fruitfly (Ceratitis capitata); conditions: 120 h, egg and larval mortality after 5 days, read-out: mortality in comparison with untreated controls
[6] = tested on: Silverleaf Whitefly (Bemisia argentifolii); conditions: 72 h, whitefly adults, 3 days after treatment, read-out: mortality in comparison with untreated controls
[7] = tested on: Cowpea Aphid (aphis craccivora); conditions: spray, population reduction assessed after 24, 72 and 120 hours, read-out: mortality in comparison with untreated controls
[8] = tested on: Boll Weevil (Anthonomus grandis); conditions: 120 h, egg and larval mortality after 5 days, read-out: mortality in comparison with untreated controls
[9] = tested on: Southern Armyworm (Spodoptera eridania); conditions: in Phaseolus lunatus, 96 h, larvae, 4 days after treatment, read-out: mortality in comparison with untreated controls
[10] = tested on: Orchid Thrips (dichromothrips corbetti); conditions: 96 h, adult thrips, after 4 days, read-out: mortality in comparison with untreated controls
[11] = tested on: Vetch Aphid (Megoura viciae); conditions: foliar, 120 h, adult aphids, after 5 days, read-out: mortality in comparison with untreated controls
[12] = tested on: Diamond Back Moth (plutella xylostella); conditions: in Brassica oleracea, foliar, leaf dip, 3rd instar larvae, 72 hours after treatment, read-out: mortality in comparison with untreated controls
[13] = tested on: Colorado Potato Beetle (Leptinotarsa decemlineata); conditions: in Solanum melongena, foliar, 96 h, larvae, 4 days after treatment, read-out: mortality in comparison with untreated controls
[14] = tested on: Green Peach Aphid (Myzus persicae); conditions: 120 h, after 5 days, read-out: mortality in comparison with untreated controls

CCS(CC)=Nc1c(-c2cc(Cl)c3c(c2)OCO3)c(C(F)(F)F)nn1-c1ncccn1 [I.1-1, [4-(7-Chloro-1,3-benzodioxol-5-yl)-2-pyrimidin-2-yl-5-(trifluoromethyl)pyrazol-3-yl]imino-diethyl-λ^4-sulfane]
≥ 75%: mortality at 2500 ppm [1] | mortality at 300 ppm [2] | mortality at 300 ppm [3] | mortality at 500 ppm [4] | mortality at 2500 ppm [5] | mortality at 500 ppm [6] | mortality at 300 ppm [7] | mortality at 2500 ppm [8] | mortality at 300 ppm [9] | mortality at 300 ppm [10] | mortality at 2500 ppm [11] | mortality at 300 ppm [12]

CC(C)S(=Nc1c(-c2cc(Cl)c3c(c2)OCO3)c(C(F)(F)F)nn1-c1ncccn1)C(C)C [I.1-2, [4-(7-Chloro-1,3-benzodioxol-5-yl)-2-pyrimidin-2-yl-5-(trifluoromethyl)pyrazol-3-yl]imino-diisopropyl-λ^4-sulfane]
≥ 75%: mortality at 2500 ppm [1] | mortality at 300 ppm [3] | mortality at 500 ppm [4] | mortality at 2500 ppm [5] | mortality at 500 ppm [6] | mortality at 300 ppm [7] | mortality at 2500 ppm [8] | mortality at 300 ppm [9] | mortality at 300 ppm [10] | mortality at 2500 ppm [11] | mortality at 300 ppm [12]

FC(F)(F)c1nn(-c2ncccn2)c(N=S2CCCC2)c1-c1cc(Cl)c2c(c1)OCO2 [I.1-3, 2-[4-(7-Chloro-1,3-benzodioxol-5-yl)-5-(thiolan-1-ylideneamino)-3-(trifluoromethyl)pyrazol-1-yl]pyrimidine]
≥ 75%: mortality at 2500 ppm [1] | mortality at 300 ppm [2] | mortality at 300 ppm [3] | mortality at 500 ppm [4] | mortality at 2500 ppm [5] | mortality at 500 ppm [6] | mortality at 300 ppm [7] | mortality at 2500 ppm [8] | mortality at 300 ppm [9] | mortality at 300 ppm [10] | mortality at 2500 ppm [11] | mortality at 300 ppm [12]

CCS(CC)=Nc1c(-c2cc(Cl)cc(C(F)(F)F)c2)c(C(F)(F)F)nn1-c1ncccn1 [I.1-4]
≥ 75%: mortality at 2500 ppm [1] | mortality at 300 ppm [2] | mortality at 300 ppm [3] | mortality at 500 ppm [4] | mortality at 2500 ppm [5] | mortality at 300 ppm [7] | mortality at 2500 ppm [8] | mortality at 300 ppm [9] | mortality at 300 ppm [10] | mortality at 2500 ppm [11] | mortality at 300 ppm [12]

CC(C)S(=Nc1c(-c2cc(Cl)cc(C(F)(F)F)c2)c(C(F)(F)F)nn1-c1ncccn1)C(C)C [I.1-5]
≥ 75%: mortality at 300 ppm [13] | mortality at 2500 ppm [1] | mortality at 300 ppm [2] | mortality at 300 ppm [3] | mortality at 500 ppm [4] | mortality at 2500 ppm [5] | mortality at 500 ppm [6] | mortality at 300 ppm [7] | mortality at 2500 ppm [8] | mortality at 300 ppm [9] | mortality at 300 ppm [14] | mortality at 300 ppm [10] | mortality at 2500 ppm [11] | mortality at 300 ppm [12]

FC(F)(F)c1cc(Cl)cc(-c2c(C(F)(F)F)nn(-c3ncccn3)c2-n2cccc2)c1 [I.1-7, 2-[4-[3-chloro-5-(trifluoromethyl)phenyl]-5-pyrrol-1-yl-3-(trifluoromethyl)pyrazol-1-yl]pyrimidine]
≥ 75%: mortality at 2500 ppm [1] | mortality at 300 ppm [3] | mortality at 500 ppm [6] | mortality at 300 ppm [7] | mortality at 300 ppm [9] | mortality at 300 ppm [10] | mortality at 300 ppm [12]

CCNC(=O)N(C(=O)NCC)c1c(-c2cc(Cl)cc(C(F)(F)F)c2)c(C(F)(F)F)nn1-c1ncccn1 [I.1-9, 1-[4-[3-chloro-5-(trifluoromethyl)phenyl]-2-pyrimidin-2-yl-5-(trifluoromethyl)pyrazol-3-yl]-3-ethyl-1-(ethylcarbamoyl)urea]
≥ 75%: mortality at 500 ppm [4]

FC(F)(F)c1cc(Cl)cc(-c2c(C(F)(F)F)nn(-c3ncccn3)c2/N=N/Nc2ccccc2)c1 [I.1-10, N-[(E)-[4-[3-chloro-5-(trifluoromethyl)phenyl]-2-pyrimidin-2-yl-5-(trifluoromethyl)pyrazol-3-yl]azo]aniline]
≥ 75%: mortality at 2500 ppm [1] | mortality at 2500 ppm [5] | mortality at 300 ppm [7] | mortality at 2500 ppm [8] | mortality at 300 ppm [9] | mortality at 300 ppm [14] | mortality at 2500 ppm [11] | mortality at 300 ppm [12]
